Laboratory results taken from PMC10387993, “New pyrimidine-N-β-D-glucosides: synthesis, biological evaluation, and molecular docking investigations” (Turkish Journal of Chemistry, 2023).
Values after ≈ are worked out from the molar mass of the structure shown. Where two headings read alike, the source gives them in different places.

How the values were obtained:
Format in all cases: cell-based
HeLa = assay: cells; details: Homo sapiens
Method in brief: (§1)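 In this MTT proliferation screen, formazan formed over 4 h was read at 560 nm against a 690 nm reference. Each line was tested at least three times, and the IC50 was taken as the concentration inhibiting half of the cells.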

Hep3B = assay: cells; details: Homo sapiens
Method in brief: as §1

HT29 = assay: cells; details: Homo sapiens
Method in brief: as §1

C6 (Rat brain glioma) = assay: cells; details: Rattus norvegicus
Method in brief: as §1

A549 = assay: cells; details: Homo sapiens
Method in brief: as §1

MCF7 = assay: cells; details: Homo sapiens
Method in brief: as §1

in vitro = details: human, LC50
Method in brief: as §1

normal FL cells = assay: cells; details: FL normal cells, MTT
Method in brief: as §1

[1] = LDH cytotoxic activity assay, C6; details: rat, C6 glioma cells
Method in brief: (§2)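 Harvest ~80%-confluent cells with trypsin-EDTA, seed ~5 × 10^3 per well in DMEM or RPMI 1640 containing 10% FBS, then add compound at 25–100 μg/mL (four levels) for 24 h at 37 °C. Finish by reading LDH activity at 492–630 nm.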

[2] = LDH cytotoxic activity assay, HeLa; details: human, HeLa cells
Method in brief: as §2

E. coli ESBL ATCC 35218 = assay: Microdilution MIC assay; details: Escherichia coli, ATCC35218; E. coli ESBL ATCC 35218, 24 h at 35 °C
Method: (§3) MIC values of the compounds against bacterial strains were determined on the basis of a microwell dilution method. […] […]. Growth of microorganisms was determined visually after incubation for 24 h at 35 °C. The lowest concentration at which there was no visible growth (turbidity) was taken as the MIC.

[3] = system: P. aeruginosa AGME ATCC 27853; assay: Microdilution MIC assay; details: Pseudomonas aeruginosa, ATCC27853; P. aeruginosa AGME ATCC 27853, 24 h at 35 °C
Method: as §3

E. coli ATCC 25922 = assay: Microdilution MIC assay; details: Escherichia coli, ATCC25922; E. coli ATCC 25922, 24 h at 35 °C
Method: as §3

[4] = system: S. aureus MSSA ATCC 29213; assay: Microdilution MIC assay; details: Staphylococcus aureus, 24 h, S. aureus MSSA ATCC 29213, 24 h at 35 °C; read-out: MIC
Method: as §3

[5] = system: S. aureus MRSA ATCC 46300; assay: Microdilution MIC assay; details: Staphylococcus aureus; S. aureus MRSA ATCC 46300, 24 h at 35 °C; read-out: MIC
Method: as §3

S. mutans ATCC 35668 = assay: Microdilution MIC assay; details: S. mutans ATCC 35668, 24 h at 35 °C
Method: as §3

[6] = LDH cytotoxic activity assay, HT29; details: human, HT29 cells
Method in brief: as §2

GI50 (HeLa; MTT): > 500 µg/mL | IC50 (HeLa; MTT, read-out: IC50): > 500 µg/mL | GI50 (Hep3B; MTT): 4.88 µg/mL (≈ 8.23 µM) | IC50 (Hep3B; MTT, read-out: IC50): > 500 µg/mL | GI50 (HT29; HT-29, HT29, MTT): 2.23 µg/mL (≈ 3.76 µM) | IC50 (HT29; HT-29, HT29, MTT, read-out: IC50): 298 µg/mL (≈ 503 µM) | GI50 (C6 (Rat brain glioma); C6, MTT): 2.03 µg/mL (≈ 3.43 µM) | IC50 (C6 (Rat brain glioma); C6, MTT, read-out: IC50): 13 µg/mL (≈ 21.9 µM) | GI50 (A549; A549, MTT): > 500 µg/mL | IC50 (A549; A549, MTT, read-out: IC50): > 500 µg/mL | GI50 (MCF7; MCF7, MTT): 1.22 µg/mL (≈ 2.06 µM) | IC50 (MCF7; MCF7, MTT, read-out: IC50): > 500 µg/mL | MIC (E. coli ESBL ATCC 35218): > 1000 µg/mL | MIC [3]: > 1000 µg/mL | MIC (E. coli ATCC 25922): > 1000 µg/mL | MIC [4]: 1000 µg/mL (≈ 1690 µM) | MIC [5]: 500 µg/mL (≈ 844 µM) | MIC (S. mutans ATCC 35668): 62.5 µg/mL (≈ 105 µM) | MIC (S. mutans ATCC 35668; Streptococcus mutans, ATCC35668, 24 h, read-out: MIC): 62.5 to 125 µg/mL (≈ 105 to 211 µM)
SMILES: CC(=O)OC[C@H]1O[C@@H](Nc2nc(-c3ccncc3)cc(-c3ccccc3C)n2)[C@H](OC(C)=O)[C@@H](OC(C)=O)[C@@H]1OC(C)=O [Compound 12, 2,3,4,6-tetra-O-acetyl-N-[4-(2-methylphenyl)-6-pyridin-4-ylpyrimidin-2-yl]-β-D-glucopyranosylamine]
IC (total growth inhibition) (HeLa; MTT, read-out: TGI): > 500 µg/mL | LC50 (concentration causing 50% net cell loss) (HeLa; read-out: LC50): > 500 µg/mL | IC (total growth inhibition) (Hep3B; MTT, read-out: TGI): > 500 µg/mL | LC50 (concentration causing 50% net cell loss relative to time zero) (Hep3B; read-out: LC50): > 500 µg/mL | LC50 (concentration giving 50% net cell loss relative to time zero) (HT29; HT-29, read-out: LC50): > 500 µg/mL | IC (total growth inhibition) (HT29; HT-29, HT29, MTT, read-out: TGI): > 500 µg/mL | LC50 (concentration giving 50% net cell loss relative to time zero) (C6 (Rat brain glioma); read-out: LC50): 139 µg/mL (≈ 234 µM) | IC (total growth inhibition) (C6 (Rat brain glioma); C6, MTT, read-out: TGI): 6.49 µg/mL | LC50 (concentration causing 50% net cell loss) (A549; A549, read-out: LC50): > 500 µg/mL | IC (total growth inhibition) (A549; A549, MTT, read-out: TGI): > 500 µg/mL | LC50 (concentration causing 50% net cell loss relative to time zero) (MCF7; MCF7, read-out: LC50): > 500 µg/mL | IC (total growth inhibition) (MCF7; MCF7, MTT, read-out: TGI): > 500 µg/mL | LC50 (concentration causing 50% net cell loss) (in vitro): > 500 µg/mL | GI50 (normal FL cells): 3.68 µg/mL (≈ 6.21 µM) | IC50 (normal FL cells; read-out: IC50): > 500 µg/mL | IC (total growth inhibition) (normal FL cells; read-out: TGI): > 500 µg/mL | cytotoxicity at 24 h, 25 μg/mL ([1]; C6, 25 μg/mL): 21.1% | cytotoxicity at 24 h, 50 μg/mL ([1]; C6, 50 μg/mL): 46.7% | cytotoxicity at 24 h, 75 μg/mL ([1]; C6, 75 μg/mL): 75.2% | cytotoxicity at 24 h, 100 μg/mL ([1]; C6, 100 μg/mL): 87.4% | cytotoxicity at 24 h, 25 μg/mL ([2]; 25 μg/mL): 18.8% | cytotoxicity at 24 h, 50 μg/mL ([2]; 50 μg/mL): 30.8% | cytotoxicity at 24 h, 75 μg/mL ([2]; 75 μg/mL): 42.6% | cytotoxicity at 24 h, 100 μg/mL ([2]; 100 μg/mL): 49.6% | cytotoxicity at 24 h, 25 μg/mL ([6]; HT29, 25 μg/mL): 30.7% | cytotoxicity at 24 h, 50 μg/mL ([6]; HT29, 50 μg/mL): 41.9% | cytotoxicity at 24 h, 75 μg/mL ([6]; HT29, 75 μg/mL): 62.6% | cytotoxicity at 24 h, 100 μg/mL ([6]; HT29, 100 μg/mL): 77.6%
